Our source for the plant injury and pest or weed control values is US4740233A, “Substituted 1,2,4-triazolo[1,5-a]-pyrimidine-2-sulfonamides and compositions and methods of controlling undesired vegetation and suppressing the nitrification of ammonium nitrogen in soil” (The Dow Chemical Company, priority 1986, dated 1988).

Common to all, as to experiment: Preemergent control of plant species
For one assay, the system named is sorghum. Format: in vivo, Sorghum vulgare. As to conditions: Sorghum, pre-emergence, 336 h; 0.25 lb/acre; read-out: percent preemergent control. The method, boiled down: (§1)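 Seeds sown in agricultural soil in greenhouse beds, then aqueous-emulsion compositions applied uniformly to the bed surface at listed rates. Beds kept two weeks under greenhouse growth conditions with watering. Control expressed as growth reduction versus water-treated beds of the same species.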

The next assay concerns corn. Format: in vivo, Zea mays. The following applies: Zea mays, pre-emergence, 336 h; 0.25 lb/acre; read-out: percent preemergent control. The method, boiled down:
as §1

For a further assay, the system named is jimsonweed. In kind it is in vivo, Datura stramonium. As to conditions: Datura stramonium, pre-emergence, 336 h; 0.25 lb/acre; read-out: percent preemergent control. The method, boiled down: as §1
A further assay concerns soybean. In kind it is in vivo, Glycine max. The following applies: Glycine max, pre-emergence, 336 h; 0.25 lb/acre; read-out: percent preemergent control. Put shortly: as §1
In the next assay the test system is velvetleaf. In kind it is in vivo, Abutilon theophrasti. The following applies: Abutilon theophrasti, pre-emergence, 336 h; 0.25 lb/acre; read-out: percent preemergent control. The method, boiled down: as §1
The next assay has as its system rice. Format: in vivo, Oryza sativa. As to conditions: Oryza sativa, pre-emergence, 336 h; 0.25 lb/acre; read-out: percent preemergent control. The method, boiled down: as §1
Another assay concerns annual morning glory. In kind it is in vivo, Ipomoea spp. As to conditions: Ipomoea, pre-emergence, 336 h; 0.25 lb/acre; read-out: percent preemergent control. The method, boiled down: as §1
Another assay concerns wild oats. In kind it is in vivo. The following applies: Avena fatua, pre-emergence, 336 h; 0.25 lb/acre; read-out: percent preemergent control. Put shortly: as §1
The next assay deals with sugar beet. Format: in vivo, Beta saccharifera. As to conditions: Beta vulgaris, pre-emergence, 336 h; 0.25 lb/acre; read-out: percent preemergent control. Put shortly:
as §1

In the next assay the test system is yellow nutsedge. In kind it is in vivo, Cyperus esculentus. The following applies: Cyperus, pre-emergence, 336 h; 0.25 lb/acre; read-out: percent preemergent control. The method, boiled down:
as §1

The test system of another assay is rape. Format: in vivo, Brassica napus. As to conditions: Brassica napus, pre-emergence, 336 h; 0.25 lb/acre; read-out: percent preemergent control. The method, boiled down:
as §1

In a further assay the test system is barnyardgrass. Format: in vivo, Echinochloa crusgalli. As to conditions: Echinochloa crus-galli, pre-emergence, 336 h; 0.25 lb/acre; read-out: percent preemergent control. Put shortly:
as §1

The next assay relates to cotton. In kind it is in vivo, Gossypium spp. The following applies: Gossypium hirsutum, pre-emergence, 336 h; 0.25 lb/acre; read-out: percent preemergent control. The method, boiled down:
as §1

In another assay the test system is wheat. Format: in vivo, Triticum aestivum. The following applies: Triticum aestivum, pre-emergence, 336 h; 0.25 lb/acre; read-out: percent preemergent control. The method, boiled down: as §1
For another assay, the system named is yellow foxtail. Format: in vivo, Setaria lutescens. The following applies: Setaria, pre-emergence, 336 h; 0.25 lb/acre; read-out: percent preemergent control. Put shortly:
as §1

The test system of a further assay is johnson grass. Format: in vivo, Sorghum halepense. As to conditions: Sorghum halepense, pre-emergence, 336 h; 0.25 lb/acre; read-out: percent preemergent control. Put shortly:
as §1

Each structure is given as a SMILES string.

Turning to `Cc1cccc([N+](=O)[O-])c1NS(=O)(=O)c1nc2nccc(C)n2n1` [Compound 184], the plant injury at 280.212 g/ha in the assay on sorghum was determined as 95%; in the assay on corn, 0%; with soybean, 50%; in the assay with rice, 0%; with sugar beet it was 100%; in the assay on rape, 98%. For the same compound, the plant injury at 280.212 g/ha is 100% with cotton and 0% in the assay on wheat. For the same compound, the pest or weed control at 280.212 g/ha came out at 98% in the assay on jimsonweed; 100% with velvetleaf; 80% in the assay with annual morning glory; 0% in the assay with wild oats; 80% in the assay with yellow nutsedge; 0% with barnyardgrass. The pest or weed control at 280.212 g/ha stood at 80% in the assay with yellow foxtail and 30% in the assay on johnson grass.
For `Cc1cnc2nc(S(=O)(=O)Nc3c(Cl)ccc(C)c3Cl)nn2c1` [Compound 194], the plant injury at 280.212 g/ha in the assay with sorghum amounted to 30%; with corn it was 0%; with soybean it was 70%; with rice, 0%; in the assay on sugar beet, 100%; with rape it was 100%. The plant injury at 280.212 g/ha in the assay with cotton worked out at 90%; with wheat it was 0%. Also, the pest or weed control at 280.212 g/ha was 95% in the assay on jimsonweed; 90% in the assay with velvetleaf; 90% with annual morning glory; 0% in the assay with wild oats; 95% with yellow nutsedge; 0% in the assay on barnyardgrass. Moreover, the pest or weed control at 280.212 g/ha in the assay on yellow foxtail and in the assay with johnson grass was 0% each time.
In the case of `COc1nc2nc(S(=O)(=O)Nc3c(F)cccc3F)nn2cc1C` [Compound 214], the plant injury at 280.212 g/ha in the assay on sorghum, in the assay on corn, in the assay on soybean, in the assay with rice, in the assay with sugar beet and with rape was 100% throughout. Further, the plant injury at 280.212 g/ha in the assay on cotton and in the assay on wheat was 100% in each case. The pest or weed control at 280.212 g/ha with jimsonweed, in the assay with velvetleaf, in the assay on annual morning glory, in the assay with wild oats, in the assay with yellow nutsedge and in the assay on barnyardgrass was 100% throughout. The pest or weed control at 280.212 g/ha in the assay with yellow foxtail and in the assay on johnson grass was 100% throughout.
Take `COC(=O)c1cccc(F)c1NS(=O)(=O)c1nc2nc(OC)c(C)cn2n1` [Compound 215]: the plant injury at 280.212 g/ha with sorghum, with corn, in the assay on soybean, with rice, in the assay on sugar beet and in the assay with rape was 100% in each case. The plant injury at 280.212 g/ha in the assay on cotton and with wheat was 100% throughout. Moreover, the pest or weed control at 280.212 g/ha with jimsonweed, with velvetleaf, in the assay on annual morning glory, in the assay on wild oats, in the assay with yellow nutsedge and in the assay on barnyardgrass was 100% throughout. The pest or weed control at 280.212 g/ha with yellow foxtail and with johnson grass was 100% each time.
With `COC(=O)c1cccc(C)c1NS(=O)(=O)c1nc2nc(OC)c(C)cn2n1` [Compound 216], the plant injury at 280.212 g/ha in the assay on sorghum came to 100%; with corn it was 100%; in the assay on soybean, 70%; with rice, 90%; in the assay with sugar beet, 100%; with rape it was 20%. Moreover, the plant injury at 280.212 g/ha in the assay on cotton and in the assay with wheat was 100% in each case. For the same compound, the pest or weed control at 280.212 g/ha with jimsonweed amounted to 100%; with velvetleaf, 100%; with annual morning glory it was 90%; in the assay on wild oats, 100%; with yellow nutsedge, 70%; with barnyardgrass, 75%. The pest or weed control at 280.212 g/ha with yellow foxtail and in the assay on johnson grass was 100% throughout.
As for `CCOC(=O)N(c1c(Cl)cccc1Cl)S(=O)(=O)c1nc2nc(C)ccn2n1` [Compound 272], the plant injury at 280.212 g/ha in the assay with sorghum is 40%; in the assay on corn, 0%; in the assay on soybean, 0%; with rice it was 30%; with sugar beet, 100%; in the assay with rape, 100%. The figures for the plant injury at 280.212 g/ha with cotton and with wheat were 80% and 0%, respectively. For the same compound, the pest or weed control at 280.212 g/ha in the assay with jimsonweed worked out at 90%; in the assay with velvetleaf, 100%; with annual morning glory, 40%; in the assay with wild oats, 0%; in the assay on yellow nutsedge, 100%; in the assay on barnyardgrass it was 60%. For the same compound, the results for the pest or weed control at 280.212 g/ha in the assay with yellow foxtail and in the assay on johnson grass were 90% and 40%, respectively.
For `Cc1ccn2nc(S(=O)(=O)N(C(=O)c3ccccc3)c3c(Cl)cccc3Cl)nc2n1` [Compound 274, 5-methyl-N-benzoly-N-(2,6-dichlorophenyl)-1,2,4-triazolo[1,5-a]pyrimidine-2-sulfonamide], the plant injury at 280.212 g/ha with sorghum amounted to 90%; with corn it was 60%; with soybean it was 0%; in the assay with rice it was 80%; in the assay on sugar beet it was 100%; in the assay on rape, 100%. Further, the plant injury at 280.212 g/ha in the assay with cotton stood at 95%; in the assay on wheat it was 0%. Further, the pest or weed control at 280.212 g/ha amounted to 90% in the assay with jimsonweed; 100% with velvetleaf; 80% in the assay on annual morning glory; 0% in the assay on wild oats; 100% in the assay on yellow nutsedge; 80% in the assay with barnyardgrass. In addition, the pest or weed control at 280.212 g/ha is 95% in the assay on yellow foxtail and 70% in the assay on johnson grass.
On to `Cc1ccn2nc(S(=O)(=O)N(C(=O)CCCl)c3c(F)cccc3F)nc2n1` [Compound 282], for which the plant injury at 280.212 g/ha was found to be 100% in the assay on sorghum; 95% with corn; 50% in the assay on soybean; 100% with rice; 100% in the assay on sugar beet; 100% in the assay on rape. Besides, the plant injury at 280.212 g/ha amounted to 100% in the assay with cotton and 70% in the assay with wheat. Further, the pest or weed control at 280.212 g/ha with jimsonweed stood at 100%; in the assay with velvetleaf, 100%; in the assay with annual morning glory, 80%; in the assay on wild oats, 100%; with yellow nutsedge it was 100%; with barnyardgrass, 70%. Besides, the pest or weed control at 280.212 g/ha in the assay on yellow foxtail and in the assay on johnson grass was 100% each time.
For `Cc1ccn2nc(S(=O)(=O)N(C(=O)CC(C)C)c3c(F)cccc3F)nc2n1` [Compound 284], the plant injury at 280.212 g/ha was found to be 100% in the assay with sorghum; 85% in the assay on corn; 20% in the assay with soybean; 100% with rice; 100% in the assay with sugar beet; 100% with rape. The plant injury at 280.212 g/ha with cotton and in the assay on wheat was 100% in each case. In addition, the pest or weed control at 280.212 g/ha was 100% in the assay on jimsonweed; 100% with velvetleaf; 80% in the assay with annual morning glory; 90% in the assay on wild oats; 100% in the assay on yellow nutsedge; 100% in the assay with barnyardgrass. Moreover, the pest or weed control at 280.212 g/ha with yellow foxtail and in the assay with johnson grass was 100% each time.
